Experimental data as given in publication PMC8596843, “Platinum Cyclooctadiene Complexes with Activity against Gram‐positive Bacteria” (Chemmedchem, 2021).

Key:
[1] = system: Staphylococcus aureus VRS 1, VRSA (VanA); assay: Antibacterial MIC assay, Gram-positive panel; type: cell-based; details: Table S1 panel; n=4
Source text: (§1) Bis(dimethyl-η4)-((1Z,1'E,5Z,5'E)-(1,1'-bi(cyclooctadiene))diplatinum(II) (Pt14) Smiles: C1C=CCCC(=CC1)C1=CCCC=CCC1.C[Pt]C.C[Pt]C
(§2) InChIKey: PHIWIZAHOBWKFJ-HPCBIOCFSA-N
(§3) Link to selected data that was repeated to approve the identity of the compounds: https://dx.doi.org/10.14272/PHIWIZAHOBWKFJ-HPCBIOCFSA-N.1
(§4) ATCC strains were sourced from the American Type Culture Collection and NRS strains from NARSA (Network on Antimicrobial Resistance in Staphylococcus aureus) via BEI Resources (www.beiresources.org), with clinical MSSA and MRSA isolates from Prof Graeme Nimmo, Queensland […]
(§5) Health Central Pathology. […]
(§6) Antibacterial minimum inhibitory concentration (MIC) assay
(§7) Compound Assay Plate Preparation: Compounds were dissolved in DMSO at 10mM (CO-ADD screening) or 4 mM (follow up screening) and were plated in a 2-fold dose response from 20 to 0.156 µM or 200 to 0.006 µM respectively, with a maximum of 0.5% or 1% DMSO, final in the assay […]
(§8) plated in a 2-fold dose response from 200 to 0.006 µM, with a maximum of 1 % DMSO, final in the assay concentration. (in-house screening)
(§9) For all the bacterial assays, each strain was cultured in Cation-adjusted Mueller Hinton broth (CAMHB; Bacto Laboratories 212322) at 37 °C overnight. A sample of each culture was then diluted 40-fold in fresh CAMHB and incubated at 37 °C for 1.5–3 h. The resultant mid-log phase cultures were diluted with CAMHB (CFU mL−1 measured by OD600), then added to each well of the compound-containing plates (384-well non-binding surface (NBS) plates; Corning CLS3640), giving a cell density of 5 × 10^5 CFU mL−1 and a total volume of 50 μL. Plates were covered and incubated at 37 °C for 18 h without shaking. Inhibition of bacterial growth was determined measuring absorbance at 600 nm (OD600), using media only as negative control and bacteria without inhibitors as positive control. MIC values were determined as the lowest concentration at which the growth was inhibited at ≥80%. Colistin sulfate (Sigma C4461) and vancomycin HCl (Sigma 861987) were used as internal controls on each plate for Gram-negative and Gram-positive bacteria, respectively. […]

[2] = system: Staphylococcus aureus ATCC 25923, MSSA; assay: Antibacterial MIC assay, Gram-positive panel; type: cell-based; details: Table S1 panel; n=4
Source text: as §1, §2, §3, §4, §5, §6, §7, §8, §9

[3] = system: E. coli lpxC (non‐efficient lipid A production mutant); assay: MIC against E. coli membrane mutants; type: cell-based, Escherichia coli; details: Table S2
Method: as §6
(§10) concentration. (in-house screening)
(§11) Bacto Laboratories 212322) at 37 °C overnight.
(§12) The resultant mid-log phase cultures were diluted
(§13) Gram-negative and Gram-positive bacteria, respectively.
(§14) final concentration range of 0.8 – 100 µM.
(§15) inhibitors as positive control. […]

[4] = system: B. subtilis ATCC 6051 type strain; assay: MIC in the presence of human serum (serum reversal); type: cell-based, Bacillus subtilis; details: 10% serum
Source text: (§16) To obtain some initial insight into the apparent disparity between in vitro and in vivo results, we repeated the MIC experiments against four selected Gram‐positive strains in the presence of 10 % or 50 % human serum (Table S3). Pt1 and Pt2 maintained some antibacterial activity against B. subtilis in the presence of 10 % serum, but a complete loss of activity was observed against MRSA and GISA (50 % serum), and VRE (10 % serum). […] Systemic administration is therefore unlikely to be a suitable administration route for this class of compounds unless an alternative formulation that can prevent serum binding (e. g. by lipid or nanoparticle encapsulation) can be found. […] Further in vivo studies should therefore focus on more suitable disease models. […]
as §6, §10, §11, §12, §13, §14, §15

[5] = system: Klebsiella pneumoniae ATCC 700603 (ESBL SHV‐18)
Method: (§17) All compounds submitted to CO‐ADD are initially screened against five bacterial strains (Staphylococcus aureus (MRSA), E. coli, Klebsiella pneumoniae, Pseudomonas aeruginosa, Acinetobacter baumannii) and two fungal strains (Candida albicans, Cryptococcus neoformans) at a single concentration (32 μg/mL or 20 μM) performed as a high‐throughput primary screening.[[11], [17a]] Any compounds that show significant growth inhibition against any of the tested strains at this step are then evaluated in a dose‐response assay against these same strains. […]
(§18) Smiles: C1C=CCCC(=CC1)C1=CCCC=CCC1.C[Pt]C.C[Pt]C […]
as §4, §5, §6, §7, §8, §9

[6] = system: Candida albicans ATCC 90028; assay: Antifungal MIC (CO-ADD screening); type: cell-based
Method: as §2
(§19) Health Central Pathology. Candida albicans (ATCC 90028, NCCLS 11), Cryptococcus neoformans
as §6, §10, §11

[7] = system: Cryptococcus neoformans H99 ATCC 208821; assay: Antifungal MIC (CO-ADD screening); type: cell-based
Method: as §2, §19, §6, §10, §11

[8] = system: S. aureus ATCC 43300 MRSA; assay: MIC in the presence of human serum (serum reversal); type: cell-based, Staphylococcus aureus; details: 50% serum
Source text: as §16, §6, §10, §11, §12, §13, §14, §15

S. aureus NRS 17 GISA = assay: as above; type: cell-based, Staphylococcus aureus; details: 50% serum
Source text: as §16, §6, §10, §11, §12, §13, §14, §15

[9] = system: HEK-293 ATCC CRL-1573 human embryonic kidney cells; type: cell-based
Method: As part of the CO‐ADD screening, all compounds that show any activity against a microbial strain are evaluated for their cytotoxicity against human embryonic kidney cells (HEK‐293) and for haemolysis against human red blood cells. None of the compounds tested for cytotoxicity (Pt1‐9 and Pd1) caused any significant cell death up to concentrations of 100 μM. […] We have also observed higher IC50 values for the methylated complexes Pt3 and Pt4 against HeLa cells in previous work.[16] […]
(§20) inhibitors as positive control.
(§21) Tamoxifen (Sigma T5648) was used
(§22) as internal control on each plate.
in a Neubauer haemocytometer. […]

[10] = system: Staphylococcus epidermidis NRS 60, VISE; assay: Antibacterial MIC assay, Gram-positive panel; type: cell-based; details: Table S1 panel; n=4
Method: as §18, §4, §5, §6, §7, §8, §9

[11] = system: Staphylococcus epidermidis ATCC 14990, type strain; assay: Antibacterial MIC assay, Gram-positive panel; type: cell-based; details: Table S1 panel; n=4
Method: as §18, §4, §5, §6, §7, §8, §9

[12] = system: Enterococcus faecalis ATCC 29212, control strain; assay: Antibacterial MIC assay, Gram-positive panel; type: cell-based; details: Table S1 panel; n=4
Method: as §18, §4, §5, §6, §7, §8, §9

[13] = system: Enterococcus faecium Clinical Isolate, VRE (VanA); assay: Antibacterial MIC assay, Gram-positive panel; type: cell-based; details: Table S1 panel; n=4
Method: as §18, §4, §5, §6, §7, §8, §9

[14] = system: Staphylococcus aureus NRS 17, GISA; assay: Antibacterial MIC assay, Gram-positive panel; type: cell-based; details: Table S1 panel; n=2
Method: as §18, §4, §5, §6, §7, §8, §9

[15] = system: Enterococcus faecium ATCC 35667, type strain; assay: Antibacterial MIC assay, Gram-positive panel; type: cell-based; details: Table S1 panel; n=4
Method: as §18, §4, §5, §6, §7, §8, §9

[16] = system: Bacillus subtilis ATCC 6051, type strain; assay: Antibacterial MIC assay, Gram-positive panel; type: cell-based; details: Table S1 panel; n=2
Method: as §18, §4, §5, §6, §7, §8, §9

[17] = system: Enterococcus faecium ATCC 51559, MDR, VRE (VanA); assay: Antibacterial MIC assay, Gram-positive panel; type: cell-based; details: Table S1 panel; n=2
Method: as §18, §4, §5, §6, §7, §8, §9

[18] = system: E. faecium ATCC 51559 MDR, VRE; assay: MIC in the presence of human serum (serum reversal); type: cell-based, Enterococcus faecium; details: 10% serum
Source text: as §16, §6, §10, §11, §12, §13, §14, §15

[19] = system: Escherichia coli ATCC 25922; assay: Antibacterial MIC assay; type: cell-based; details: CO‐ADD screening
Method: as §17, §18, §4, §5, §6, §7, §8, §9

[20] = system: Pseudomonas aeruginosa ATCC 27853; assay: Antibacterial MIC assay; type: cell-based; details: CO‐ADD screening
Method: as §17, §18, §4, §5, §6, §7, §8, §9

[21] = system: Acinetobacter baumannii ATCC 19606; assay: Antibacterial MIC assay; type: cell-based; details: CO‐ADD screening
Method: as §17, §18, §4, §5, §6, §7, §8, §9

[22] = system: Staphylococcus aureus ATCC 43300 (MRSA); assay: microbe, parasite or virus in culture; type: cell-based
Method: as §17, §18, §4, §5, §6, §7, §8, §9

human red blood cells = assay: Haemolysis assay; type: cell-based
Method: As part of the CO‐ADD screening, all compounds that show any activity against a microbial strain are evaluated for their cytotoxicity against human embryonic kidney cells (HEK‐293) and for haemolysis against human red blood cells. None of the compounds tested for cytotoxicity (Pt1‐9 and Pd1) caused any significant cell death up to concentrations of 100 μM. […] We have also observed higher IC50 values for the methylated complexes Pt3 and Pt4 against HeLa cells in previous work.[16]
as §12, §13, §14, §20, §21, §22
in a Neubauer haemocytometer.
incubated for 1 h at 37 °C, without shaking.
HC10 and HC50 (concentration at which 10%
for top, bottom and slope using Prism 8. […]

CC(C)C([O][Pt][Cl])/C1=C/CC/C=C\CC1 (centres unmarked) [Pt8] showed an MIC [1] of 12.5 µM, an MIC [2] of 25 µM and an MIC E. coli lpxC [3] of over 200 µM. The MIC in the presence of human serum [4] was 200 µM, the “MIC Kp” value [5] was over 20 µM and the “MIC Ca” value [6] was 10 µM. For the same molecule, the “MIC Cn” value [7] was 1.25 µM, the MIC in the presence of human serum [8] was over 200 µM and the MIC in the presence of human serum (S. aureus NRS 17 GISA) was over 200 µM. It also gave a CC50 [9] of over 100 µM, an MIC [10] of 25 µM and an MIC [11] of 6.25 µM. For the same molecule, the MIC [12] was 100 µM, the MIC [13] was 100 µM and the MIC [14] was 50 µM. The MIC [15] was 100 µM, the MIC [16] was 50 µM and the MIC [17] was 50 µM. For the same molecule, the MIC in the presence of human serum [18] was over 200 µM, the “MIC Ec” value [19] was over 20 µM and the “MIC Pa” value [20] was over 20 µM. For the same molecule, the “MIC Ab” value [21] was over 20 µM, the “MIC Sa” value ([22]; CO‐ADD screening) was over 20 µM and the MIC ([22]; Table S1 panel, n=2) was 3.12 µM. The “Haemolysis HC10” value (human red blood cells; concentration inducing 10 % haemolysis) was over 100 µM and the “Haemolysis HC50” value (human red blood cells; concentration inducing 50 % haemolysis) was over 100 µM.
